{"source": "paper PMC7838189", "about": "“Natural podophyllotoxin analog 4DPG attenuates EMT and colorectal cancer progression via activation of checkpoint kinase 2” (Cell Death Discovery, 2021)", "key": {"[1]": {"test": "Pharmacokinetic study, single i.v. dose", "type": "in vivo", "settings": "5 mg/kg i.v. single dose, Balb/c mice", "experimental": "Subsequently, to evaluate the exposure of 4DPG in healthy animals, we performed PK analysis in Balb/c mice by administering a single dose (5 mg/kg) of the compound intravenously.\nThe PK studies were performed following our standardized procedure with minor modifications. To determine the PK profile of 4DPG, healthy male Balb/c mice (body weight 25–30 g each) were employed in the study. Six animals were enrolled for each sampling time point and a total of 11 time points (0.083, 0.25, 0.5, 1, 2, 4, 6, 8, 12, 16, and 24 h) were involved in the study. Control group of mice were administered with saline and test groups of animals received a single dose of 4DPG (5 mg/kg, body weight) intravenously. After the successful injections of the molecule, 100 µL of plasma was collected from each animal enrolled at the above sampling time points and the plasma proteins were precipitated with 400 µL of acetonitrile. Following extraction into the solvent and subsequent filtration, the compound was analyzed using a 6410 triple-quadrupole LC–MS/MS system (Agilent Technologies, USA). Individual samples collected at each time point were quantified through single ion monitoring (SIM) by comparing with the standard calibration curve prepared using Agilent Mass Hunter software (version B.04.00) (detailed description is provided in Supplementary information file). Essential PK parameters such as half-life (t1/2), C initial (C0), area under the curve (AUC0–∞), volume of distribution (Vd), clearance (Cl), and mean residence time (MRT) were calculated utilizing noncompartmental pharmacokinetic data analysis."}, "[2]": {"test_system": "orthotopic rat colorectal carcinoma", "settings": "25 mg/kg thrice a week for 3 weeks", "from_the_text": "To examine the antitumor and anti-metastatic efficacy of 4DPG in vivo, we employed a carcinogen-induced orthotopic rat colorectal carcinoma model. […] The schematic representation briefly describes the steps involved in the generation of orthotopic colorectal tumors along with the treatment strategy and further analysis (details in “Materials and methods”). The animals were euthanized at the end of the experiment and evaluated for tumor and metastatic burden (Fig. 4A). […] To validate whether our in vitro observations on mechanistic inhibition of EMT and invasion by 4DPG hold true in vivo, we performed immunohistochemical analysis of the tumor tissues acquired from the saline and 4DPG-treated animal groups.\nA Model depicting the procedure adopted for generating the carcinogen-induced orthotopic rat CRC model, treatment strategies of 4DPG, evaluation of tumor burden, and further biochemical analysis. B Representative images of large bowel showing the colorectal tumor growth in saline, 5-FU (25 mg/kg), and 4DPG (25 mg/kg) treated groups of animals. C, D Quantification of tumor volume and number of polyps per rat in above groups of animals. n = 6 rats per group, error bars: mean ± SD; *P < 0.05, **P < 0.01, ***P < 0.001. E Representative images of the lungs dissected from the above groups of animals showing metastatic tumor burden. Orange arrows indicating bumps of secondary tumors over each lobe of lungs. F, G Quantification of a number of macroscopic secondary tumors over the lung tissues and lung weight in the above groups of animals. n = 6 rats per group, error bars, mean ± SD; **P < 0.01, ***P < 0.001. […] Scale bar: 50 µm. I Western blots depicting expression of p-Chk2 (Thr68), Chk2, p53, p-Vimentin (Ser38), and Vimentin in tumor tissues obtained from saline- and 4DPG-treated groups of animals. β-Actin expression was taken as endogenous loading control. J Densitometry analysis of the above western blot bands portraying relative protein expression of the markers presented. n = 3, error bars: mean ± SD; **P < 0.01, ***P < 0.001.\nAnimal studies were performed following the guidelines approved by Institutional Animal Ethics Committee (IAEC No. 51/02/15) of CSIR-Indian Institute of Integrative Medicine, Jammu, India. The experiment was performed according to our standardized protocol described previously with necessary modifications. Five-weeks-old healthy male Wistar rats (body weight 150–200 g) were maintained in aseptic condition with free access to food and water. Animals were randomized into three groups, with six animals per group. All the rats received intrarectal instillation of 0.5 mL of freshly prepared 0.4% aqueous solution of N-methyl-N-nitrosourea (MNU) thrice a week for 3 weeks, for the orthotopic induction of colorectal tumors. The solution was injected using sterile syringe with attached 8-cm long rubber catheter tube inserted two-thirds into the colon lumen through anal orifice, as described previously. The animals were kept under continuous monitoring, and the body weight was measured once per week. Following 22 weeks after the initiation of MNU administration, treatment regimens were started by administering 5-FU (25 mg/kg), and 4DPG (25 mg/kg) thrice a week for 3 weeks. The control and treatment groups of animals were dosed separately by three independent investigators and the outcomes were assessed by a fourth investigator blind about the dosing process and treatment regimen."}}, "note": "Values joined by “and” are separate entries in the source; they are usually repeats but may differ in a detail not shown here. Identical values can stand only once."}
{"smiles": "COc1cc([C@@H]2c3cc4c(cc3C[C@H]3COC(=O)[C@@H]32)OCO4)cc(OC)c1O[C@@H]1O[C@H](CO)[C@@H](O)[C@H](O)[C@H]1O", "note": "[4DPG, 4′-demethyl-deoxypodophyllotoxin glucoside]", "values": [{"measurement": "Area under curve (AUC0-t)", "setting": "[1]", "value": 10068.884, "unit": "ng·h/mL"}, {"measurement": "Area under curve (AUC0-∞)", "setting": "[1]", "value": "10104.05 ng·h/mL and 10104.053 ng·h/mL"}, {"measurement": "Clearance (Cl)", "setting": "[1]", "value": 8.25, "unit": "mL/min/kg"}, {"measurement": "Half-life (t1/2)", "setting": "[1]", "value": 39.2, "unit": "min"}, {"measurement": "Mean residence time (MRT)", "setting": "[1]", "value": 18.4, "unit": "min"}, {"measurement": "Volume of distribution (Vd)", "setting": "[1]", "value": 0.466, "unit": "L/kg"}, {"measurement": "C initial (C0)", "setting": "[1]; plasma", "value": 10165.18, "unit": "ng/mL"}, {"measurement": "lung metastases", "setting": "[2]", "value": "strongly prevented the development of lung metastases"}, {"measurement": "drug-related toxicity/adverse effects", "setting": "[2]; until end of experiment", "value": "without any drug-related toxicity/adverse effects"}, {"measurement": "average number of polyps", "setting": "[2]; control group 16", "value": 3}, {"measurement": "mean tumor volume", "setting": "[2]; saline control 820.6 mm^3", "value": 116.8, "unit": "mm^3"}]}
